Reference: patent publication US20240390484A1 (priority 2022, published 2024)
Where two headings read alike, the source gives them in different places.

Assays:
[1] = Particle size and polydispersity index (PDI) by Dynamic Light Scattering; format: physicochemical; details: for “Ready-to-use” S2P RNA formulation PDI / “Ready-to-use” S2P RNA formulation Size: 48/40.5/10/1.5 mol %, blank-LNP added to lyophilized S2P RNA (55 ug/vial), N/P 7
Protocol: (§1) Lipid nanoparticles (LNPs) were formed or formulated by rapid mixing of an ethanol phase and an aqueous phase using a microfluidic device. The aqueous phase included a 50 mM citrate buffer (pH 5.5). The ethanol phase included an ionizable lipid (as described herein), cholesterol (Jiangsu Southeast Nanomaterials), 1,2-diastearoyl-sn-glycero-3-phosphocholine (DSPC) (Jiangsu Southeast Nanomaterials) and 1,2-dimyristoyl-rac-glycero-3-methoxypolyethylene glycol-2000 (DMG-PEG2000) (SINOPEG). A series of ionizable lipids were evaluated. These four lipid components were mixed at defined molar ratios in ethanol, for instance, at a molar ratio of 48:40.5:10:1.5 (ionizable lipid:cholesterol:DSPC:DMG-PEG2000). The generated LNP particles were purified in citrate buffer (containing sucrose) and characterized with respect to particle size, polydispersity index (PDI) and ionizable lipid concentration. The LNP solution was then diluted to the target concentration and stored at 2-8° C.
(§2) In the case of a filled LNP, for example, an LNP-encapsulated S-2P RNA liquid drug product, the preparation protocol is essentially the same, except that it was an aqueous solution of S-2P RNA in citrate buffer pH 5-6 that constitutes the aqueous phase for LNP formation. The LNP-encapsulated RNA formulation is also referred to as “RNA-LNP” in this disclosure. Regarding characterization, particle size and polydispersity index (PDI) of the RNA-LNP were determined by Dynamic Light Scattering (DLS); RNA encapsulation efficiency and concentration were determined by means of Ribogreen® assay and RNA purity was determined by agarose gel electrophoresis.
(§3) The “ready-to-use” RNA product was manufactured by transferring a predetermined amount of already formed LNP in solution to a sealed vial containing the lyophilized RNA composition, followed by mixing at room temperature. The amount of LNP added per vial (e.g., 30-100 μg RNA per vial) was determined based on the molar ionizable lipid:RNA (N/P) molar ratio of 7. In this disclosure, “ready-to-use” S-2P RNA formulations (also referred to as “LNP(S-2P RNA)”) containing 30-100 μg/mL S-2P RNA were prepared, and then characterized with respect to particle size, polydispersity index, as well as RNA concentration, complexation efficiency, and purity using the same methods as described above in Example 3.

[2] = RNA encapsulation/complexation efficiency by Ribogreen assay; format: physicochemical; details: for “Ready-to-use” S2P RNA formulation RNA complexation efficiency: 48/40.5/10/1.5 mol %, blank-LNP added to lyophilized S2P RNA (55 ug/vial), N/P 7
Protocol: as §2, §3

[3] = tested on: BHK-21 cells; format: cell-based; details: 4 μg
[4] = tested on: Vero E6 cells; format: cell-based; details: 4 μg
[5] = Stability of blank-LNP at 2-8° C. (particle size, PDI); format: physicochemical; details: blank-LNP 48/40.5/10/1.5 mol %
Protocol: as §1
Each generated blank-LNP formulation was added to and mixed with lyophilized S2P RNA, altogether yielding a series of “ready-to-use” S2P RNA test items containing the different ionizable lipids. The pharmaceutical characteristics (Table 3) and in vitro transfection efficiency (Table 4) of these “ready-to-use” RNA test items were compared head-to-head. In parallel, the stability profiles of these […] blank-LNP formulations (i.e. without RNA complexation) were assessed at 2-8° C. (see Table 5).
The generated fourteen blank-LNP formulations were characterized in terms of particle size and PDI, both at the end of manufacturing (T=0) and 8-week storage at 2-8° C. […] (defined as size increase ≤20 nm in 8 weeks), namely DMG-PEG2000 between at least 1-4 mol %, DSPC between at least 5-20 mol %, ionizable lipid between at least 30-70 mol % and cholesterol between at least 18.5-58.5 mol %.

[6] = blank-LNP, 48/40.5/10/1.5 mol % ionizable lipid/cholesterol/DSPC/DMG-PEG
[7] = ionizable lipid/Chol/DSPC/DMG-PEG 20/57.0/20/3.0 mol %
[8] = ionizable lipid/Chol/DSPC/DMG-PEG 30/55.0/12/3.0 mol %
[9] = ionizable lipid/Chol/DSPC/DMG-PEG 40/48.5/10/1.5 mol %
[10] = ionizable lipid/Chol/DSPC/DMG-PEG 45/43.5/10/1.5 mol %
[11] = ionizable lipid/Chol/DSPC/DMG-PEG 50/38.5/10/1.5 mol %
[12] = ionizable lipid/Chol/DSPC/DMG-PEG 60/30.0/8.5/1.5 mol %
[13] = ionizable lipid/Chol/DSPC/DMG-PEG 70/22.5/6/1.5 mol %
[14] = ionizable lipid/Chol/DSPC/DMG-PEG 70/22.5/6.0/1.5 mol %
[15] = ready-to-use S2P RNA, 48 hours post transfection, 48/40.5/10/1.5 mol %
[16] = various LNP batches, different molar ratios of ionizable lipid:cholesterol:DSPC:DMG-PEG2000

CCCCCCCCCOC(=O)CCCCCCCOc1ccc(OCCCCCCCC(=O)OC(CCCCCCCC)CCCCCCCC)cc1COC(=O)CCCN(C)C
“Ready-to-use” S2P RNA formulation PDI [1]: 0.12
“Ready-to-use” S2P RNA formulation Size [1]: 173 nm
Blank-LNP PDI [1, 6]: 0.13
Blank-LNP Size [1, 6]: 88 nm
Blank-LNP PDI [1, 7]: 0.18
Blank-LNP Size [1, 7]: 82 nm
“Ready-to-use” S2P RNA PDI [1, 7]: 0.21
“Ready-to-use” S2P RNA Size [1, 7]: 157 nm
Blank-LNP PDI [1, 8]: 0.2
Blank-LNP Size [1, 8]: 75 nm
“Ready-to-use” S2P RNA PDI [1, 8]: 0.21
“Ready-to-use” S2P RNA Size [1, 8]: 125 nm
Blank-LNP PDI [1, 9]: 0.12
Blank-LNP Size [1, 9]: 90 nm
“Ready-to-use” S2P RNA PDI [1, 9]: 0.18
“Ready-to-use” S2P RNA Size [1, 9]: 169 nm
Blank-LNP PDI [1, 10]: 0.04
Blank-LNP Size [1, 10]: 87 nm
“Ready-to-use” S2P RNA PDI [1, 10]: 0.12
“Ready-to-use” S2P RNA Size [1, 10]: 151 nm
Blank-LNP PDI [1, 11]: 0.11
Blank-LNP Size [1, 11]: 83 nm
“Ready-to-use” S2P RNA PDI [1, 11]: 0.13
“Ready-to-use” S2P RNA Size [1, 11]: 147 nm
Blank-LNP PDI [1, 12]: 0.15
Blank-LNP Size [1, 12]: 76 nm
“Ready-to-use” S2P RNA PDI [1, 12]: 0.13
“Ready-to-use” S2P RNA Size [1, 12]: 143 nm
Blank-LNP PDI [1, 13]: 0.21
Blank-LNP Size [1, 13]: 77 nm
“Ready-to-use” S2P RNA PDI [1, 13]: 0.16
“Ready-to-use” S2P RNA Size [1, 13]: 146 nm
“Ready-to-use” S2P RNA formulation RNA complexation efficiency [2]: 42%
“Ready-to-use” S2P RNA, RNA complex. efficiency [2, 7]: 54%
“Ready-to-use” S2P RNA, RNA complex. efficiency [2, 8]: 61%
“Ready-to-use” S2P RNA, RNA complex. efficiency [2, 9]: 51%
“Ready-to-use” S2P RNA, RNA complex. efficiency [2, 10]: 50%
“Ready-to-use” S2P RNA, RNA complex. efficiency [2, 11]: 48%
“Ready-to-use” S2P RNA, RNA complex. efficiency [2, 12]: 44%
“Ready-to-use” S2P RNA, RNA complex. efficiency [2, 13]: 40%
RBD expression in BHK-21 cells [3, 7]: 0.082 ng/mL
RBD expression in BHK-21 cells [3, 8]: 1.655 ng/mL
RBD expression in BHK-21 cells [3, 9]: 1.517 ng/mL
RBD expression in BHK-21 cells [3, 10]: 2.090 ng/mL
RBD expression in BHK-21 cells [3, 11]: 1.887 ng/mL
RBD expression in BHK-21 cells [3, 12]: 0.812 ng/mL
RBD expression in BHK-21 cells [3, 14]: <LOD
RBD expression in Vero E6 cells [4, 7]: <LOD
RBD expression in Vero E6 cells [4, 8]: 0.129 ng/mL
RBD expression in Vero E6 cells [4, 9]: 1.204 ng/mL
RBD expression in Vero E6 cells [4, 10]: 1.842 ng/mL
RBD expression in Vero E6 cells [4, 11]: 1.633 ng/mL
RBD expression in Vero E6 cells [4, 12]: 1.239 ng/mL
RBD expression in Vero E6 cells [4, 14]: 0.0939 ng/mL
PDI, T = 1 month [5]: 0.09
Size, T = 1 month [5]: 88 nm
Change in size (nm) vs. T0, T = 2 weeks [5]: −9 nm
PDI, T = 2 weeks [5]: 0.06
Size, T = 2 weeks [5]: 79 nm
PDI, T = 0 [5]: 0.13
Size, T = 0 [5]: 88 nm

CCCCCCOCCC/C=C/COC(=O)CCCCCCCCC(CCCCCCCCC(=O)OC/C=C/CCCOCCCCCC)OC(=O)CCCN(C)C [Lipid #11]
“Ready-to-use” S2P RNA formulation PDI [1]: 0.11
“Ready-to-use” S2P RNA formulation Size [1]: 266 nm
Blank-LNP PDI [1, 6]: 0.09
Blank-LNP Size [1, 6]: 165 nm
“Ready-to-use” S2P RNA formulation RNA complexation efficiency [2]: 34%
RBD expression in BHK-21 cells [3, 15]: 0.52 ng/mL
RBD expression in Vero E6 cells [4, 15]: 0.20 ng/mL
Change in size (nm) vs. T0, T = 1 month [5]: +59 nm
PDI, T = 1 month [5]: 0.06
Size, T = 1 month [5]: 224 nm
Change in size (nm) vs. T0, T = 2 weeks [5]: +42 nm
PDI, T = 2 weeks [5]: 0.04
Size, T = 2 weeks [5]: 207 nm
PDI, T = 0 [5]: 0.09
Size, T = 0 [5]: 165 nm

CCCCCCCCCOC(=O)CCCCCCCOc1ccc(OCCCCCCCC(=O)OCCCCCCCCC)c(COC(=O)CCCN(C)C)c1 [Lipid #2]
“Ready-to-use” S2P RNA formulation PDI [1]: 0.21
“Ready-to-use” S2P RNA formulation Size [1]: 211 nm
Blank-LNP PDI [1, 6]: 0.09
Blank-LNP Size [1, 6]: 120 nm
RBD expression in BHK-21 cells [3, 15]: 1.34 ng/mL
RBD expression in Vero E6 cells [4, 15]: 0.97 ng/mL
Change in size (nm) vs. T0, T = 1 month [5]: unaltered size
PDI, T = 1 month [5]: 0.07
Size, T = 1 month [5]: 121 nm
Change in size (nm) vs. T0, T = 1 month ([5]; listed as #2): +1 nm
Change in size (nm) vs. T0, T = 2 weeks [5]: +2 nm
PDI, T = 2 weeks [5]: 0.09
Size, T = 2 weeks [5]: 122 nm
PDI, T = 0 [5]: 0.09
Size, T = 0 [5]: 120 nm

CCCCCCCCCOC(=O)CCCCCCCOc1ccc(OCCCCCCCC(=O)OC(CCCCCCCC)CCCCCCCC)c(COC(=O)CCCN(C)C)c1 [Lipid #5]
“Ready-to-use” S2P RNA formulation PDI [1]: 0.13
“Ready-to-use” S2P RNA formulation Size [1]: 137 nm
Blank-LNP PDI [1, 6]: 0.2
Blank-LNP Size [1, 6]: 91 nm
particle size [1, 16]: 80±15 nm
polydispersity index [1, 16]: 0.10±0.05
“Ready-to-use” S2P RNA formulation RNA complexation efficiency [2]: 44%
PDI, T = 1 month [5]: 0.14
Size, T = 1 month [5]: 93 nm
Change in size (nm) vs. T0, T = 2 weeks [5]: −1 nm
PDI, T = 2 weeks [5]: 0.13
Size, T = 2 weeks [5]: 90 nm
PDI, T = 0 [5]: 0.20
Size, T = 0 [5]: 91 nm
